# Assay results taken from patent publication US11324740B2, “Use of agonists of type-2 dopaminergic receptors in treatment of conditions caused by elevated vascular endothelial growth factor levels” (priority 2016, dated 2022).
# Tests used:
# Assay type in all cases: in vivo, Wistar strain rats
# Details in all cases: cabergoline oral 0.05 mg/kg b.w. over 14 days
# [1] = test system: experimental model for choroidal neovascularization (CNV); assay: Blood-retinal barrier permeability (dextran method) and retinal thickness (OCT) in laser model for choroidal neovascularization (CNV)
# Procedure: (§1) The Effects of Administration of Cabergoline on Permeability of Blood-Retinal Barrier and Retinal Thickness in an Experimental Model for Choroidal Neovascularization (CNV). The research was conducted on an experimental model of Wistar strain rats. Choroidal neovascularization (CNV) was performed by photocoagulation of the retina using a 532 nm laser. In the course of the experiment, the following parameters were assessed: permeability of blood-retinal barrier using the dextran method (BRB) and the thickness of the retina using optical coherence tomography (OCT). In the experiment, 4 experimental groups were compared: healthy animals without cabergoline administration, healthy animals with cabergoline administration (14 days of use), animals with CNV without cabergoline, animals with CNV with cabergoline (14 days of use). Cabergoline was administered to the animals in oral form at a dose of 0.05 mg/kg b.w. over 14 days.
# [2] = test system: experimental model for diabetic retinopathy; assay: Blood-retinal barrier permeability (dextran method) and retinal thickness (OCT) in streptozocin model for diabetic retinopathy
# Procedure: The Effects of Administration of Cabergoline on Permeability of Blood-Retinal Barrier and on Retinal Thickness in an Experimental Model for Diabetic Retinopathy The research was conducted on an experimental model of Wistar strain rats. In order to cause diabetes, the rats were injected intraperitoneally with streptozocin at a dose of 60 mg/kg b.w. After 30 days since administration of streptozocin blood glucose level was checked and only rats with the blood glucose levels of over 250 mg % were qualified for the experiment. In the course of the experiment, the following parameters were assessed: permeability of blood-retinal barrier using the dextran method (BRB) and the thickness of the retina using optical coherence tomography (OCT). In the experiment, 4 experimental groups were compared: healthy animals without cabergoline administration, healthy animals with cabergoline administration (14 days of use), animals with diabetes without cabergoline, animals with diabetes with cabergoline (14 days of use). Cabergoline was administered to the animals in oral form at a dose of 0.05 mg/kg b.w. over 14 days.
# [3] = test system: experimental model for central retinal vein occlusion; assay: Blood-retinal barrier permeability (dextran method) and retinal thickness (OCT) in laser model for central retinal vein occlusion
# Procedure: as §1, with “Central Retinal Vein Occlusion.” for “Choroidal Neovascularization (CNV).”, “Central retinal vein occlusion” for “Choroidal neovascularization (CNV)”, “performed” for “performed by photocoagulation of the retina”, “central retinal vein occlusion” for “CNV”
# [4] = rats with streptozocin diabetes
# [5] = rats with central retinal vein occlusion
structure (smiles),measurement,setting,value
"C=CCN1C[C@H](C(=O)N(CCCN(C)C)C(=O)NCC)C[C@@H]2c3cccc4[nH]cc(c34)C[C@H]21 [cabergoline, Cabergoline]","BRB (permeability of blood-retinal barrier, dextran method)",[1]; healthy rats,28.5 ± 6.6 µL/g/min
same,OCT (thickness of the retina),[1]; healthy rats,221 ± 22 μm
same,"BRB (permeability of blood-retinal barrier, dextran method)",[1]; rats with CNV,37.4 ± 15.2 µL/g/min
same,OCT (thickness of the retina),[1]; rats with CNV,283 ± 17 μm
same,"BRB (permeability of blood-retinal barrier, dextran method)",[2]; healthy rats,22.4 ± 7.5 µL/g/min
same,OCT (thickness of the retina),[2]; healthy rats,281 ± 14 μm
same,"BRB (permeability of blood-retinal barrier, dextran method)",[2]; [4],35.8 ± 10.6 µL/g/min
same,OCT (thickness of the retina),[2]; [4],320 ± 35 μm
same,"BRB (permeability of blood-retinal barrier, dextran method)",[3]; healthy rats,25.1 ± 4.2 µL/g/min
same,OCT (thickness of the retina),[3]; healthy rats,258 ± 13 μm
same,"BRB (permeability of blood-retinal barrier, dextran method)",[3]; [5],33.3 ± 12.9 µL/g/min
same,OCT (thickness of the retina),[3]; [5],343 ± 28 μm
